Laboratory results reported in patent US11130756B2, “[1,2,4]Triazolo[4,3-A]pyridinyl substituted indole compounds” (BRISTOL-MYERS SQUIBB COMPANY, priority 2017, dated 2021).

Experiments:
Type in all cases: cell-based
human TLR8 = target: T1, human TLR8 (Homo sapiens, UniProt Q9NR97); assay: TLR8 inhibition reporter assay (HEK-Blue, SEAP); settings: HEK-Blue cells overexpressing human TLR8, R848 15.9 μM, 22 hour incubation
T1 construct: host or cells: HEK-Blue cells
T1 sequence (Q9NR97 27-1041): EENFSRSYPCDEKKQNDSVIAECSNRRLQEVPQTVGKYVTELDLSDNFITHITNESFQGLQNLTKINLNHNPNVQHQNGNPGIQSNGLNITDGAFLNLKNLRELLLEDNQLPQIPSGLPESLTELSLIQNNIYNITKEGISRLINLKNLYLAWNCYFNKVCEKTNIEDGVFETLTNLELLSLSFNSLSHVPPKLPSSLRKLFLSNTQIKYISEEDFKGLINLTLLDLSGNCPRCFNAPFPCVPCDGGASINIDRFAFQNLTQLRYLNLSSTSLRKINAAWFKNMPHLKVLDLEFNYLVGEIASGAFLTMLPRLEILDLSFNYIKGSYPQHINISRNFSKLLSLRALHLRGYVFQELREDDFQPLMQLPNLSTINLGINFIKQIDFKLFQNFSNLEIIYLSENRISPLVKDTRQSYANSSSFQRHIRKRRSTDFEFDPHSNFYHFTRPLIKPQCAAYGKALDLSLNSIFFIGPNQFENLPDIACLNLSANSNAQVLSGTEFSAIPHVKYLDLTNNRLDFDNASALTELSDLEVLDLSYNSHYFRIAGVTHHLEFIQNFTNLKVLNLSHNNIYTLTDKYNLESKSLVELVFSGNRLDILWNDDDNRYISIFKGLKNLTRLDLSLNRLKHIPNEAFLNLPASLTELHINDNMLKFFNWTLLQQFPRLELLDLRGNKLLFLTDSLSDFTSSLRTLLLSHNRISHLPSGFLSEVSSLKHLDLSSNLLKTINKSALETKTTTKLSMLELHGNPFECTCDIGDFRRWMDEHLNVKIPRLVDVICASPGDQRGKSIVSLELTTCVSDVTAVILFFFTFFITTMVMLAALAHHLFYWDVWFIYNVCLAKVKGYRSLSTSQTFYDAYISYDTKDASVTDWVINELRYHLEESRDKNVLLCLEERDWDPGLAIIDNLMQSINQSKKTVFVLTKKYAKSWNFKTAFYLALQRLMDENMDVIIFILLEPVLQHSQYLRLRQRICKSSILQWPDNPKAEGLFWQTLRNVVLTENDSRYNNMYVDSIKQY
Method in brief: (§1)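 Compound treatment: 30 min, RT, 0.05 nM–50 μM final. Agonist: TLR7 gardiquimod 7.5 μM; TLR8 R848 15.9 μM; TLR9 ODN2006 5 nM. Incubation 22 h, 37 °C, 5% CO2. Readout SEAP, HEK-Blue Detection.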

human TLR9 = target: T2, human TLR9 (Homo sapiens, UniProt Q9NR96); assay: TLR9 inhibition reporter assay (HEK-Blue, SEAP); settings: HEK-Blue cells overexpressing human TLR9, ODN2006 5 nM, 22 hour incubation
T2 construct: host or cells: HEK-Blue cells
T2 sequence (Q9NR96 26-1032): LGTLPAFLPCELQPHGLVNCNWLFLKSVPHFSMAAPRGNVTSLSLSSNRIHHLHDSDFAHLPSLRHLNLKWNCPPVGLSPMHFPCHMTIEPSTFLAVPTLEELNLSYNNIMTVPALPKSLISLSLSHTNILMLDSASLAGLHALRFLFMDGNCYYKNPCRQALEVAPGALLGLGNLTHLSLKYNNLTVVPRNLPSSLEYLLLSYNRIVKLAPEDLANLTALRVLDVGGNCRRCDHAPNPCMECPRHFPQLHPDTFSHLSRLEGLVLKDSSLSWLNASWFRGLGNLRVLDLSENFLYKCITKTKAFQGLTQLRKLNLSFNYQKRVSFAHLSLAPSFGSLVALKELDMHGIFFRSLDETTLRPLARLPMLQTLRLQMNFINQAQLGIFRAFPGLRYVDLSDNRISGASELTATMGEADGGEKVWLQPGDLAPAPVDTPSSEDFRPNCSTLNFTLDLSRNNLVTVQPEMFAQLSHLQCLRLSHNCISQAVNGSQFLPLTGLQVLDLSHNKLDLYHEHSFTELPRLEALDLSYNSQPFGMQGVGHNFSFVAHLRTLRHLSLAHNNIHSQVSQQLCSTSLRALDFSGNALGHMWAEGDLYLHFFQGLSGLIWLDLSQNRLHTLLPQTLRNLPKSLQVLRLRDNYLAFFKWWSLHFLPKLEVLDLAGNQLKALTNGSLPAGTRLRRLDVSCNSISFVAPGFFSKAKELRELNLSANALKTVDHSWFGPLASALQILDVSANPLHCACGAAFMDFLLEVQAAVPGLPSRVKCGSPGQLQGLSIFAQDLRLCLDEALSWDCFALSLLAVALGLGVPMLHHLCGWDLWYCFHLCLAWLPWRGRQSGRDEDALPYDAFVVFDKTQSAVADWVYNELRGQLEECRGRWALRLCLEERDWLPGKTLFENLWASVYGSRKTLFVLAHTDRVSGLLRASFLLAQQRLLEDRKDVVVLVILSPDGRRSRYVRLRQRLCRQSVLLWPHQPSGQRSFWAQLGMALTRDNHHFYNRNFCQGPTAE
Method in brief: as §1

human TLR7 = target: T3, human TLR7 (Homo sapiens, UniProt Q9NYK1); assay: TLR7 inhibition reporter assay (HEK-Blue, SEAP); settings: HEK-Blue cells overexpressing human TLR7, gardiquimod 7.5 μM, 22 hour incubation
T3 construct: host or cells: HEK-Blue cells
T3 sequence (Q9NYK1 27-1049): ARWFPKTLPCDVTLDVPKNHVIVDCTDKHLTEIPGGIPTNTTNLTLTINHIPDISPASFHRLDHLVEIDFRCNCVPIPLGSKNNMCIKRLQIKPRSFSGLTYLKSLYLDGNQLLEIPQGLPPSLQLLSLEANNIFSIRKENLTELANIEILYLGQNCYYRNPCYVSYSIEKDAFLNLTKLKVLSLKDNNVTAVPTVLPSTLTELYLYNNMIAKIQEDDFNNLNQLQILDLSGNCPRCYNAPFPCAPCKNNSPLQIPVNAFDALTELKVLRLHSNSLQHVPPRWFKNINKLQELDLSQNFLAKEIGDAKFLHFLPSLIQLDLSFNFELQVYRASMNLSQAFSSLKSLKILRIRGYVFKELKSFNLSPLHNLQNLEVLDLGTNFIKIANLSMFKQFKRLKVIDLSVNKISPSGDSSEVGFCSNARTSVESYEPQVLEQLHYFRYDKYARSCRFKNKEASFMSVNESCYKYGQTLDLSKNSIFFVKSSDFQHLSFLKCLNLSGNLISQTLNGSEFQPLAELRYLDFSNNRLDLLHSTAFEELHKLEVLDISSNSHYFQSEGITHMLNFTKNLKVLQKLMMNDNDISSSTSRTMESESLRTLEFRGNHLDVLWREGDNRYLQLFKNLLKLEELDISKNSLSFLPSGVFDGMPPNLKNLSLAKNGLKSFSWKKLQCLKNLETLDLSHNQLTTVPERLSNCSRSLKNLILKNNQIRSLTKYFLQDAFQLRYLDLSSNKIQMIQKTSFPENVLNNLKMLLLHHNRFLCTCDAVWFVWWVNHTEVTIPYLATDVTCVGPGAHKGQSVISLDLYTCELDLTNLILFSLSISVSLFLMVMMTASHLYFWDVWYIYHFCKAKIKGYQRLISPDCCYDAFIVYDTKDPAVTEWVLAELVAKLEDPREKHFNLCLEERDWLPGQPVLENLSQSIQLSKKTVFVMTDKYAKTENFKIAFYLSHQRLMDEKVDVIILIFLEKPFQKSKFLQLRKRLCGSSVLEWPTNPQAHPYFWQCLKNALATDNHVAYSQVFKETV
Method in brief: as §1

SMILES	IC50 (human TLR8)	IC50 (human TLR9)	IC50 (human TLR7)
Cc1c(-c2[nH]c3ccc(C4CCN(CC(=O)N(C)C)CC4)cc3c2C(C)C)cn2cnnc2c1Cl [Example 49, 2-(4-(2-(8-chloro-7-methyl-[1,2,4]triazolo[4,3-a]pyridin-6-yl)-3-isopropyl-1H-indol-5-yl)piperidin-1-yl)-N,N-dimethylacetamide]	31.1 nM	957 nM	1.5 nM
Cc1c(-c2[nH]c3ccc(C4CCN(CC#N)CC4)cc3c2C(C)C)cn2cnnc2c1Cl [Example 50, 2-(4-(2-(8-chloro-7-methyl-[1,2,4]triazolo[4,3-a]pyridin-6-yl)-3-isopropyl-1H-indol-5-yl)piperidin-1-yl)acetonitrile]	57 nM	1090 nM	1.5 nM
Cc1c(-c2[nH]c3ccc(C4CCN(CC#N)CC4)cc3c2C(C)C)cn2cnnc2c1C [Example 51, 2-(4-(2-(7,8-dimethyl-[1,2,4]triazolo[4,3-a]pyridin-6-yl)-3-isopropyl-1H-indol-5-yl)piperidin-1-yl)acetonitrile]	31.8 nM	1000 nM	2.8 nM
Cc1c(-c2[nH]c3ccc(C4CCN(CCN5CCCS5(=O)=O)CC4)cc3c2C(C)C)cn2cnnc2c1C [Example 52, 2-(2-(4-(2-(7,8-dimethyl-[1,2,4]triazolo[4,3-a]pyridin-6-yl)-3-isopropyl-1H-indol-5-yl)piperidin-1-yl)ethyl)isothiazolidine 1,1-dioxide]	5.8 nM	1280 nM	1.5 nM
Cc1c(-c2[nH]c3ccc(C4CCN(CCN5CCCS5(=O)=O)CC4)cc3c2C(C)C)cn2cnnc2c1Cl [Example 53, 2-(2-(4-(2-(8-chloro-7-methyl-[1,2,4]triazolo[4,3-a]pyridin-6-yl)-3-isopropyl-1H-indol-5-yl)piperidin-1-yl)ethyl) isothiazolidine 1,1-dioxide]	10.1 nM	565 nM	0.9 nM
COc1cc(-c2[nH]c3ccc(C4CCN(CC(=O)N(C)C)CC4)cc3c2C(C)C)cn2cnnc12 [Example 54, 2-(4-(3-isopropyl-2-(8-methoxy-[1,2,4]triazolo[4,3-a]pyridin-6-yl)-1H-indol-5-yl)piperidin-1-yl)-N,N-dimethylacetamide]	19.5 nM	99 nM	1.9 nM
COc1cc(-c2[nH]c3ccc(C4CCN(CCCC(F)(F)F)CC4)cc3c2C(C)C)cn2cnnc12 [Example 55, 6-(3-isopropyl-5-(1-(4,4,4-trifluorobutyl)piperidin-4-yl)-1H-indol-2-yl)-8-methoxy-[1,2,4]triazolo[4,3-a] pyridine]	10.6 nM	1100 nM	0.9 nM
Cc1c(-c2[nH]c3ccc(C4CCN(CCN5CCOC5=O)CC4)cc3c2C(C)C)cn2cnnc2c1C [Example 56, 3-(2-(4-(2-(7,8-dimethyl-[1,2,4]triazolo[4,3-a]pyridin-6-yl)-3-isopropyl-1H-indol-5-yl)piperidin-1-yl)ethyl)oxazolidin-2-one]	7.9 nM	196 nM	0.5 nM
Cc1c(-c2[nH]c3ccc(C4CCN(CCN5CCCC5=O)CC4)cc3c2C(C)C)cn2cnnc2c1C [Example 57, 1-(2-(4-(2-(7,8-dimethyl-[1,2,4]triazolo[4,3-a]pyridin-6-yl)-3-isopropyl-1H-indol-5-yl)piperidin-1-yl)ethyl) pyrrolidin-2-one]	13 nM	1300 nM	5 nM
Cc1cc(-c2[nH]c3ccc(C4CCN(CC(C)(C)O)CC4)cc3c2C(C)C)cn2cnnc12 [Example 58, 1-(4-(3-isopropyl-2-(8-methyl-[1,2,4]triazolo[4,3-a]pyridin-6-yl)-1H-indol-5-yl)piperidin-1-yl)-2-methylpropan-2-ol]	0.9 nM	1750 nM	0.8 nM
Cc1cc(-c2[nH]c3ccc(C4CCN(CC(C)(C)O)CC4)cc3c2C(C)C)c(C)n2cnnc12 [Example 59, 1-(4-(2-(5,8-dimethyl-[1,2,4]triazolo[4,3-a]pyridin-6-yl)-3-isopropyl-1H-indol-5-yl)piperidin-1-yl)-2-methylpropan-2-ol]	3.1 nM	3430 nM	81.7 nM
Cc1c(-c2[nH]c3ccc(C4CCN(CC(C)(C)O)CC4)cc3c2C(C)C)cn2cnnc2c1C [Example 60, 1-(4-(2-(7,8-dimethyl-[1,2,4]triazolo[4,3-a]pyridin-6-yl)-3-isopropyl-1H-indol-5-yl)piperidin-1-yl)-2-methylpropan-2-ol]	4.3 nM	2900 nM	1.7 nM
Cc1c(-c2[nH]c3ccc(C4CCN(CC(C)(C)O)CC4)cc3c2C(C)C)cn2cnnc2c1Cl [Example 61, 1-(4-(2-(8-chloro-7-methyl-[1,2,4]triazolo [4,3-a]pyridin-6-yl)-3-isopropyl-1H-indol-5-yl)piperidin-1-yl)-2-methylpropan-2-ol]	4.6 nM	2270 nM	0.9 nM
